# Patent publication US20030220232A1, “Peptide and nucleic acid coding therefor for the detection, diagnosis and therapy of diseases of the nervous system” (priority 2000, published 2003)
# How the values were obtained:
# sodium ion channels = assay: Neuroinhibitory assay: inhibition of sodium currents, whole cell mode, differentiated NH15-CA2 neuroblastoma-x-glioma cells; assay type: cell-based; settings: for concentration of solution with corresponding electrophysiological action on neuronal sodium channels: 10 μM peptide solution corresponds to 50 μM lidocaine solution
# Description: “Neuroinhibitory activity” here means the capacity of a substance for blocking sodium ion channels. Neuroinhibitory activity can be measured in this connection by the inhibition of sodium ion currents through potential-dependent sodium ion channels. (Review article by Lehmann-Horn et al. in Rev. Physiol. Biochem. Pharmacol. 128; (1996), 198-268). The experimental conditions for measurement of the neuroinhibitory activity are described, for example, in Brinkmeier et al., Muscle and Nerve 19 (1996), 54-62. Neuroinhibitory activity can be determined using differentiated NH15-CA2 [neuroblastoma×glioma] cells (Hamprecht et al., Meth. Enzymol. 109 (1985), 316-41; Brinkmeier et al., Muscle Nerve 19 (1996), 54-62).
# The neuroinhibitory activity was determined by the inhibition of sodium ion channels using differentiated NH15-CA2 neuroblastoma-x-glioma cells. The culture conditions and morphological and physiological parameters of the differentiation of these cells are known (Hamprecht et al., Meth. Enzymol. 109 (1985), 316-41). For the assay, the cells were transferred into a hydrophobic test dish which was filled with standard external liquid (140 mM NaCl; 3.5 mM KCl; 1.0 mM CaCl2; 1.0 mM MgCl2; 2 mM HEPES, pH 7.4). The dish was on the platen of an inverted microscope for observation of the cells, while these were treated with pipettes which were filled with internal solution (140 mM CsCl; 1.4 mM MgCl2; 10 mM EGTA and 10 mM HEPES (peak resistances: […])). The sodium currents were induced and recorded in the whole cell mode. The determination of the maximum current amplitudes as a response to repetitive rectangular pulses from −85 to −20 mV lasting 8 ms before, during and after administration of the test solution can be used as a rapid test for the neuroinhibitory activity. The decrease in the current was recorded in three to five cells and the means were determined. An extended test consisted of determination of the “steady-state” activation and inactivation parameters of sodium ion channels. To determine the dependence of the activation on potential, a cyclic pulse program was used, which comprised pre-pulses which depolarized the cells from an HP (holding potential) of −85 mV to −135 mV over 100 ms, and subsequent variable test pulses which depolarized for 8 ms in 4 mV steps from −65 to +31 mV. For the dependence of the inactivation on potential, a similar program was used, which comprised a fixed 100 ms conditioning pulse at −135 mV, a variable 32 ms prepulse in the course of −135 to −19 mV in 4 mV steps and a constant test pulse which depolarized the cells to −20 mV. The size of the left shift of the h curve in the presence of test solutions was used as a measured of the inhibition of the sodium ion channels.
# The neuroinhibitory activity of the synthetic peptide with the sequence (SEQ ID NO:1) was determined by the inhibition of the sodium currents by ion channels which were induced by 1 Hz rectangular pulses from […]. […] In each case the mean with the standard deviation is shown.
# [1] = molecular target: sodium ion channels of differentiated NH15-CA2 neuroblastoma-x-glioma cells; assay: cell-based or functional assay
compound,measurement,setting,value
"CCN(CC)CC(=O)Nc1c(C)cccc1C [lidocaine, reference compound]",concentration of solution with corresponding electrophysiological action on neuronal sodium channels,sodium ion channels,50 μM
Gln-Tyr-Asn-Ala-Asp (QYNAD) [SEQ ID NO:1],concentration at saturation of the neuroinhibitory effect,sodium ion channels,100 µM
same,neuroinhibitory activity compared with lidocaine,sodium ion channels,significantly higher
same,neuroinhibitory activity in respect of sodium ion channels (in words),sodium ion channels,blocks their sodium currents
same,concentration of solution with corresponding electrophysiological action on neuronal sodium channels,sodium ion channels,10 μM
same,peptide-mediated blocking of the ion channel (time course),sodium ion channels; NH15-CA2 cells,rapid and reversible
same,IC50,"sodium ion channels; NH15-CA2 cells, currents induced by 1 Hz rectangular pulses, seven measurements, read-out: peptide concentration giving half-maximum inhibition of the sodium ion currents",< 10 µM
Gln-Tyr-Asn-Asp-Ala (QYNDA) [SEQ ID NO:2],neuroinhibitory activity in respect of sodium ion channels (in words),sodium ion channels,does not have a neuroinhibitory activity
synthetic peptide Gln-Tyr-Asn-Ala-Asp (SEQ ID NO: 1),half-maximum inhibition of the sodium ion currents,[1],< 10 µM
same,saturation of the peptide effect,[1],100 µM
